{"source": "patent US20100113368A1", "about": "“CHOLESTEROL LOWERING PROTEIN HYDROLYSATES” (priority 2007, published 2010)", "key": {"[1]": {"system": "hypercholesterolemic rat model", "assay": "Hypocholesterolemic effects of R-P-P-R, K-P-P, L-arginine and Ezetimib in Fisher F344 rats (Example 6)", "assay_type": "in vivo", "details": "for Effect on non-HDL cholesterol (VLDL-cholesterol+LDL-cholesterol) as compared to the control group / Effect on plasma HDL-cholesterol as compared to the control group / Effect on plasma total cholesterol as compared to the control group: in words, 8 days orally, 100 mg/kg BW (Ezetimib 1 mg/kg BW); for HDL cholesterol (plasma) / Total cholesterol (plasma) / non HDL cholesterol (plasma): male F344 rats on atherogenic diet, orally for 8 days, peptides and L-arginine 100 mg/kg BW, Ezetimib 1 mg/kg BW, mean ± SD; for non HDL cholesterol (plasma): difference between total and HDL cholesterol", "protocol": "In this experiment the effects of the chemically synthesized peptides R-P-P-R and K-P-P, the free amino acid L-arginine and the potent and selective cholesterol absorption inhibitor Ezetimib (Ezetrol, MSD Germany) were tested on plasma cholesterol levels in the hypercholesterolemic rat model.\nMale Fisher rats (F344) from Charles River (Sulzfeld, Germany), weighing 65-96 g were housed individually with free access to water and feed, with an alternating 12-hour light-dark cycle. The animals were fed a rodent atherogenic diet high in cholesterol and fat similar to the procedure described in Example 5. After 2 weeks of adaptation to the diet the rats were randomized according to body weight into five experimental groups of 10 animals each. The five groups were treated orally every morning for 8 days with either water (control group) or with R-P-P-R, K-P-P and L-arginine at a dose of 100 mg/kg body weight (BW) or with Ezetimib at a dose of 1 mg/kg BW while continuing the aetherogenic diet. There was no difference in feed consumption over the whole experiment. The day before the last administration, all animals were dosed orally in the evening and deprived of food for the last 6 hours but allowed free access to water. At day 8 the fasted rats were treated again orally in the morning and after two hours the animals were sacrificed by withdrawing blood from the vena Cava under Isoflurane anesthesia. Blood was collected into tubes containing EDTA as an anticoagulant. Plasma was prepared from the blood by immediate centrifugation at 1600 g for 10 minutes at 4° C. Assays of plasma cholesterol and HDL-cholesterol (precipitation method) were determined enzymatically on a Hitachi 912 automatic analyzer (Roche Diagnostica, Switzerland). Non-HDL cholesterol was calculated by difference between total cholesterol and HDL cholesterol. All data are expressed as means±standard deviation (SD) for animals in each diet group, with n being the number of rats."}, "[2]": {"system": "hypercholesterolemic rat model", "assay": "Hypocholesterolemic effects of peptide R-P-P-R-S in Fisher F344 rats (Example 5)", "assay_type": "in vivo", "details": "male F344 rats on atherogenic diet, 100 mg/kg BW orally for 7 days, mean ± SD", "protocol": "In this experiment the effects of the chemically synthesized […] R-P-P-R-S was tested on plasma cholesterol levels in the hypercholesterolemic rat model.\nIn short male Fisher rats (F344) from Charles River (Sulzfeld, Germany), weighing 65-96 g were housed individually with free access to water and feed, with an alternating 12-hour light-dark cycle. The animals were fed a rodent atherogenic diet high in cholesterol and fat for the 2 weeks preceding the treatment. The macro-nutrient composition of the diet was as follows (g/100 g anhydrous mix): protein 20.8; fiber 4.2; fat 15; carbohydrate 48. The diet also contained 1.25 wt % cholesterol, 0.5 wt % sodium cholate and a standard vitamin and mineral mix, prepared according to rat nutritional requirements. The main fats consisted of cacoa butter (7.5 wt %) and soja oil (4.35 wt %). After 2 weeks of adaptation to the diet the rats were randomized according to body weight into two experimental groups of 10 animals. The two groups were treated orally every morning for 7 days with either water (control group) or peptide R-P-P-R-S, at a dose of 100 mg/kg body weight (BW) while continuing the aetherogenic diet. There was no difference in feed consumption over the whole experiment. The day before the last administration, all animals were dosed orally in the evening and deprived of food overnight (14 hours) but allowed free access to water. At day 7 the fasted rats were treated again orally in the morning and after two hours the animals were sacrificed by withdrawing blood from the vena Cava under Isoflurane anesthesia. Blood was collected into tubes containing EDTA as an anticoagulant. […] Assays of plasma cholesterol and HDL-cholesterol (precipitation method) were determined enzymatically on a Hitachi 912 automatic analyzer (Roche Diagnostica, Switzerland). Non-HDL cholesterol was calculated by difference between total cholesterol and HDL cholesterol. […] All data are expressed as means±standard deviation (SD) for animals in each diet group, with n being the number of rats. […]"}}, "note": "Marks after values point to notes of the source that are not given here.", "data": [{"compound": "O=C1[C@H](CC[C@H](O)c2ccc(F)cc2)[C@@H](c2ccc(O)cc2)N1c1ccc(F)cc1", "note": "[Ezetimib, reference compound]", "values": [{"measurement": "Effect on non-HDL cholesterol (VLDL-cholesterol+LDL-cholesterol) as compared to the control group", "setting": "[1]", "value": "prominent effects"}, {"measurement": "Effect on plasma HDL-cholesterol as compared to the control group", "setting": "[1]", "value": "prominent effects"}, {"measurement": "Effect on plasma total cholesterol as compared to the control group", "setting": "[1]", "value": "prominent effects"}, {"measurement": "HDL cholesterol (plasma)", "setting": "[1]", "value": "0.51 ± 0.06", "unit": "mmol/L"}, {"measurement": "Total cholesterol (plasma)", "setting": "[1]", "value": "4.70 ± 0.93", "unit": "mmol/L"}, {"measurement": "non HDL cholesterol (plasma)", "setting": "[1]", "value": "4.19 ± 0.90", "unit": "mmol/L"}]}, {"compound": "R-P-P-R (RPPR) [chemically synthesized peptide Arg-Pro-Pro-Arg]", "values": [{"measurement": "Effect on non-HDL cholesterol (VLDL-cholesterol+LDL-cholesterol) as compared to the control group", "setting": "[1]", "value": "significantly lowered"}, {"measurement": "Effect on plasma HDL-cholesterol as compared to the control group", "setting": "[1]", "value": "tended to increase"}, {"measurement": "Effect on plasma total cholesterol as compared to the control group", "setting": "[1]", "value": "significantly lowered"}, {"measurement": "HDL cholesterol (plasma)", "setting": "[1]", "value": "0.35 ± 0.04", "unit": "mmol/L"}, {"measurement": "Total cholesterol (plasma)", "setting": "[1]", "value": "5.28 ± 0.81", "unit": "mmol/L"}, {"measurement": "non HDL cholesterol (plasma)", "setting": "[1]", "value": "4.94 ± 0.81", "unit": "mmol/L"}]}, {"compound": "K-P-P [KPP]", "values": [{"measurement": "Effect on non-HDL cholesterol (VLDL-cholesterol+LDL-cholesterol) as compared to the control group", "setting": "[1]", "value": "tended to lowered"}, {"measurement": "Effect on plasma HDL-cholesterol as compared to the control group", "setting": "[1]", "value": "significantly increased"}, {"measurement": "Effect on plasma total cholesterol as compared to the control group", "setting": "[1]", "value": "tended to lowered"}, {"measurement": "HDL cholesterol (plasma)", "setting": "[1]", "value": "0.37 ± 0.04", "unit": "mmol/L"}, {"measurement": "Total cholesterol (plasma)", "setting": "[1]", "value": "6.82 ± 1.42", "unit": "mmol/L"}, {"measurement": "non HDL cholesterol (plasma)", "setting": "[1]", "value": "6.45 ± 1.44", "unit": "mmol/L"}]}, {"compound": "R-P-P-R-S (RPPRS) [chemically synthesized peptide Arg-Pro-Pro-Arg-Ser]", "values": [{"measurement": "HDL cholesterol (plasma)", "setting": "[2]; fasted, 2 h after last dose", "value": "0.36 ± 0.10^b mmol/L"}, {"measurement": "Total cholesterol (plasma)", "setting": "[2]; fasted, 2 h after last dose", "value": "2.9 ± 0.4^b mmol/L"}, {"measurement": "non HDL cholesterol (plasma)", "setting": "[2]; difference between total and HDL cholesterol", "value": "2.5 ± 0.5^b mmol/L"}]}, {"compound": "N=C(N)NCCC[C@H](N)C(=O)O", "note": "[L-arginine, reference compound]", "values": [{"measurement": "Effect on non-HDL cholesterol (VLDL-cholesterol+LDL-cholesterol) as compared to the control group", "setting": "[1]", "value": "had no effect"}, {"measurement": "Effect on plasma HDL-cholesterol as compared to the control group", "setting": "[1]", "value": "had no effect"}, {"measurement": "Effect on plasma total cholesterol as compared to the control group", "setting": "[1]", "value": "had no effect"}, {"measurement": "HDL cholesterol (plasma)", "setting": "[1]", "value": "0.33 ± 0.05", "unit": "mmol/L"}, {"measurement": "Total cholesterol (plasma)", "setting": "[1]", "value": "7.66 ± 1.08", "unit": "mmol/L"}, {"measurement": "non HDL cholesterol (plasma)", "setting": "[1]", "value": "7.32 ± 1.08", "unit": "mmol/L"}]}]}
